As a reminder, the Ki is a dissociation constant, usually derived from enzyme kinetics or from competition with a known ligand. A word on the melting point: it is the temperature of the solid-liquid transition.

The structures appear in SMILES notation.

For one series, the target named is human A1AR (Homo sapiens (Human), UniProt P30542). The series is described as follows: Binding assay to the human A1AR ([3H]R-PIA). As to conditions: [3H]R-PIA (2.0 nM), CHO cells, Table 2; for Ki: read-out: Ki(hA1AR); for inhibition at 10 µM: 1 h, read-out: hA1AR % displ. at 10 μM. The procedure: (§1) CHO (Chinese hamster ovary) cells expressing the recombinant human ARs (HEK-293 cells were used for the human A2AAR) were cultured in DMEM and F12 (1:1) supplemented with 10% fetal bovine serum, 100 units/ml penicillin, […] streptomycin and 2 μmol/ml glutamine. Cells were harvested by trypsinization. After homogenization and suspension, cells were centrifuged at 500 g for 10 min, and the pellet was re-suspended in 50 mM Tris.HCl buffer (pH 7.4) containing 10 mM MgCl2. The suspension was homogenized with an electric homogenizer for 10 sec, and was then re-centrifuged at 20,000 g for 20 min at 4° C. The resultant pellets were resuspended in buffer in the presence of 3 Units/mL adenosine deaminase, and the suspension was stored at −80° C. until the binding experiments. The protein concentration was measured using the Bradford assay.
human A1AR, sequence (P30542 whole entry): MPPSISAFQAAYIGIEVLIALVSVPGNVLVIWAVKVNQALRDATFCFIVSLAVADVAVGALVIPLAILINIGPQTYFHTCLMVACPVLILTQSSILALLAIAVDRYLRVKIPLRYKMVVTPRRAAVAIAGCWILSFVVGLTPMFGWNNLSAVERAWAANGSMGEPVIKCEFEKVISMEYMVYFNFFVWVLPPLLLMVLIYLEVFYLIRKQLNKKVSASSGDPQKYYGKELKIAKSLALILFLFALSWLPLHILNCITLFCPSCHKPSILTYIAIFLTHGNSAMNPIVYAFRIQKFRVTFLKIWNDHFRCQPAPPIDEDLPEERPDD
(§2) For binding to the human A1AR, [^3H]R-PIA (2 nM) was incubated with membranes (40 μg/tube) from CHO cells stably expressing the human A1AR at 25° C. for 60 min in 50 mM Tris.HCl buffer (pH 7.4; MgCl2, 10 mM) in a total assay volume of 200 μL. Nonspecific binding was determined using 10 μM of N^6-cyclopentyladenosine. For human A2A AR binding, membranes (20 μg/tube) from HEK-293 cells stably expressing the human A2A AR were incubated with 15 nM [^3H]CGS21680 at 25° C. for 60 min in 200 μL of 50 mM Tris.HCl, pH 7.4, containing 10 mM MgCl2. N-5′-ethyluronamidoadenosine (10 μM) was used to define nonspecific binding. Reaction was terminated by filtration with GF/B filters.

The next series concerns the target human A2A AR (Homo sapiens (Human), UniProt P29274). The series can be described thus: Binding assay to the human A2A AR ([3H]CGS21680). The conditions noted are these: [3H]CGS 21680 (15 nM), HEK293 cells, Table 2; for Ki: read-out: Ki(hA2AAR). Here is the method:
as §1, §2

In another series the target is hA2BAR (Homo sapiens (Human), UniProt P29275). The series can be described thus: Effect on NECA-induced cyclic AMP accumulation at A2B receptor. Note: NECA (150 nM)-induced cyclic AMP accumulation. The format is cell-based. The conditions noted are these: read-out: hA2BAR % inhib. at 10 μM.
hA2BAR, sequence (P29275 whole entry): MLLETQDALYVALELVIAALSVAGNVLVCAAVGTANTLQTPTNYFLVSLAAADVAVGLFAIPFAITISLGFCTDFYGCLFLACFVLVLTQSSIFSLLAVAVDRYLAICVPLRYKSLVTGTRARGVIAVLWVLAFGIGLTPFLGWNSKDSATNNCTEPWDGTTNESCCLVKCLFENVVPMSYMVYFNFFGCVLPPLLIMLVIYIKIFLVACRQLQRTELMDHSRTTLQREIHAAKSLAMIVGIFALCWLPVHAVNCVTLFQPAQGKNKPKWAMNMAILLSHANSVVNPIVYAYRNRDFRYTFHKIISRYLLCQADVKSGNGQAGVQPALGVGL
The target of a further series is human A3AR (Homo sapiens (Human), UniProt P0DMS8). The series is described as follows: Competitive binding assay to the human A3AR ([125I]I-AB-MECA). The conditions noted are these: for inhibition at 10 µM: 1 h, read-out: hA3AR % displ. at 10 μM; for inhibition at 10 µM / Ki: [125I]I-AB-MECA (0.5 nM), CHO cells, Table 2; for Ki: read-out: Ki(hA3AR); for affinity to orthosteric versus allosteric binding sites (selective affinity): orthosteric sites of A1, A2A, A2B, A3 receptors vs allosteric site of A3 adenosine receptor. The procedure:
as §1
Each tube in the competitive binding assay contained 100 μl membrane suspension (20 μg protein), 50 μl [^125I]-AB-MECA (0.5 nM), and 50 μl of increasing concentrations of the test ligands in Tris.HCl buffer (50 mM, pH 8.0) containing 10 mM MgCl2, 1 mM EDTA. Nonspecific binding was determined using 10 μM of 5′-N-ethylcarboxamidoadenosine in the buffer. The mixtures were incubated at 25° C. for 60 min. Binding reactions were terminated by filtration through Whatman GF/B filters under reduced pressure using a MT-24 cell harvester (Brandell, Gaithersburgh, Md., USA). Filters were washed three times with 9 mL ice-cold buffer. Radioactivity was determined in a Beckman 5500B γ-counter.

The target in series [1] is T1, human A3ARs (Homo sapiens (Human), UniProt P0DMS8). The series can be described thus: Dissociation kinetics of [125I]I-AB-MECA from human A3ARs. The format is binding. As to conditions: 0.5 h, % decrease of dissociation at 30 min, residual binding of [125I]AB-MECA after 30 min = 100%, Table 2, read-out: hA3AR Ag. Dissociation at 10 μM. The procedure:
The dissociation of [^125I]I-AB-MECA was measured as follows. Membranes (20 μg) were preincubated at 25° C. with 0.5 nM [^125I]I-AB-MECA, in a total volume of 100 μl of Tris-HCl buffer (50 mM, pH 8.0) containing 10 mM MgCl2, and 1 mM EDTA for 60 min. The dissociation was then initiated by the addition of 3 μM Cl-IB-MECA with or without allosteric modulators. The time course of dissociation of total binding was measured by rapid filtration at appropriate time intervals. Nonspecific binding was measured after 60-min incubation in the presence of 3 μM Cl-IB-MECA. Further assay was as described above.

Series [2] addresses T1, human A3ARs. The series can be described thus: Cyclic AMP accumulation assay, efficacy at hA3AR. As to conditions: compared to maximal effect by 2-Cl-IB-MECA alone (control = 100%). The format is cell-based. The procedure:
Intracellular cyclic AMP levels were measured with a competitive protein binding method (Nordstedt and Fredholm, 1990). CHO cells that expressed recombinant human A3ARs were harvested by trypsinization. After centrifugation and resuspension in medium, cells were plated in 24-well plates in 0.5 ml medium. After 24 hr, the medium was removed and cells were washed three times with 1 ml DMEM, containing 50 mM HEPES, pH 7.4. Cells were then treated with agonists and/or test compounds in the presence of rolipram (10 μM) and adenosine deaminase (3 units/ml). After 45 min forskolin (10 μM) was added to the medium, and incubation was continued an additional 15 min. The reaction was terminated by removing the supernatant, and cells were lysed upon the addition of 200 μL of 0.1 M ice-cold HCl. The cell lysate was resuspended and stored at −20° C. For determination of cyclic AMP production, protein kinase A (PKA) was incubated with [^3H]cyclic AMP (2 nM) in K2HPO4/EDTA buffer (K2HPO4, 150 mM; EDTA, 10 mM), 20 μL of the cell lysate, and 30 μL 0.1 M HCl or 50 μL of cyclic AMP solution (0-16 pmol/200 μL for standard curve). Bound radioactivity was separated by rapid filtration through Whatman GF/C filters and washed once with cold buffer. Bound radioactivity was measured by liquid scintillation spectrometry.

human A2A AR, sequence (P29274 whole entry): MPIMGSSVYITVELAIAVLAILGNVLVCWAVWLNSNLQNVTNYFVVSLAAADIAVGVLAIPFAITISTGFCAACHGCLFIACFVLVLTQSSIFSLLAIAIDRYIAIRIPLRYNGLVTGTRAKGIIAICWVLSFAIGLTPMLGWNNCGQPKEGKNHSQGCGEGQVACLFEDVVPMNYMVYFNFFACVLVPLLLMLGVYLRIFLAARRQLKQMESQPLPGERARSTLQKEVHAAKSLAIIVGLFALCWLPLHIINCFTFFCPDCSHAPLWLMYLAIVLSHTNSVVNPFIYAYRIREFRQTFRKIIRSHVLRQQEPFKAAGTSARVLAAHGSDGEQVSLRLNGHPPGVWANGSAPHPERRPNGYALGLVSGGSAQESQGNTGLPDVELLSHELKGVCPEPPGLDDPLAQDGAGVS
human A3AR, sequence (P0DMS8 whole entry): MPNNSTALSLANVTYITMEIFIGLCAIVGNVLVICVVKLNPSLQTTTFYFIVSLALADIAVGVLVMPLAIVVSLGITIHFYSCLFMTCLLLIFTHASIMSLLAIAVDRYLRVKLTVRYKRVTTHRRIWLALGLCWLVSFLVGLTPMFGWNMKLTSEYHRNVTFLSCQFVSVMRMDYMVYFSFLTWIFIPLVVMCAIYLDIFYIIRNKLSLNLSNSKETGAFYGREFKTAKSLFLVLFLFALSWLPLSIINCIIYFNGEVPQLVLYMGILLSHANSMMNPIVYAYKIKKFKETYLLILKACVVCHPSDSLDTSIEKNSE
T1 sequence (P0DMS8 whole entry): as above

Take `c1ccc(Nc2nc3ccccc3c3[nH]c(C4CCCC4)nc23)cc1` [Compound 30, N-Phenyl-2-cyclopentyl-1H-imidazo[4,5-c]quinolin-4-amine, reference compound]: the figures for the inhibitory constant (Ki) at human A1AR, at human A2A AR and at human A3AR were 3.42 ± 0.23 µM, 3.15 ± 0.21 µM and 0.786 ± 0.067 µM, respectively. The inhibition at 10 µM is -6.8% on hA2BAR and 90% on human A3AR. In addition, at human A3AR, the “affinity to orthosteric versus allosteric binding sites (selective affinity)” value is on record as “non-specific affinity”. Besides, the activity at 10 µM at human A3ARs [1] was 174 ± 5%. The “% Increase of efficacy at hA3AR at 10 μM” value at human A3ARs [2] was 138 ± 8%.
Molecule `Cc1ccc(Nc2nc3ccccc3c3[nH]c(C4CCCC4)nc23)cc1` [Compound 31, N-(4-Methyl-phenyl)-2-cyclopentyl-1H-imidazo[4,5-c]quinolin-4-amine] had a melting point of 125 to 126 °C. For the same molecule, the inhibition constant (Ki) at human A2A AR worked out at 5.22 ± 0.32 µM. Besides, at hA2BAR, the inhibition at 10 µM was -4.1%. For the same molecule, on human A3AR, the inhibition at 10 µM came out at 87% and the Ki is 1.19 ± 0.107 µM. The activity at 10 µM at human A3ARs [1] came out at 153 ± 4%. For the same molecule, on human A3ARs [2], the “% Increase of efficacy at hA3AR at 10 μM” value is given as 128 ± 4%.
The molecule `COc1ccc(Nc2nc3ccccc3c3[nH]c(C4CCCC4)nc23)cc1` [Compound 32, N-(4-Methoxy-phenyl)-2-cyclopentyl-1H-imidazo[4,5-c]quinolin-4-amine] came in with a melting point of 106 to 107 °C. Besides, at human A1AR, the inhibition constant Ki was 4.17 ± 0.73 µM. Further, at human A2A AR, the “hA2AAR % displ. at 10 μM” value is listed as “(16%)” and the Ki is more than 10 µM. Further, the inhibition at 10 µM at hA2BAR turned out to be 7.3%. On human A3AR, the inhibition at 10 µM was determined as 92% and the Ki was 0.41 ± 0.064 µM. The activity at 10 µM at human A3ARs [1] is 166 ± 11%. Further, the “% Increase of efficacy at hA3AR at 10 μM” value at human A3ARs [2] is 132 ± 4%.
`Clc1ccc(Nc2nc3ccccc3c3[nH]c(C4CCCC4)nc23)cc1Cl` [Compound 33, N-(3,4-Dichloro-phenyl)-2-cyclopentyl-1H-imidazo[4,5-c]quinolin-4-amine]: the melting point lay within 114 to 115 °C. Moreover, at human A1AR, the inhibition at 10 µM came to 15% and the Ki is more than 10 µM. Besides, on human A2A AR, the “hA2AAR % displ. at 10 μM” value was “(0%)” and the inhibitory constant (Ki) is more than 10 µM. Moreover, at hA2BAR, the inhibition at 10 µM is -6.7%. At human A3AR, the inhibition at 10 µM was 67%, the Ki was 4.69 ± 0.97 µM and the “affinity to orthosteric versus allosteric binding sites (selective affinity)” value is reported as “selective affinity”. For the same molecule, on human A3ARs [1], the activity at 10 µM was determined as 144 ± 9%. Besides, the “% Increase of efficacy at hA3AR at 10 μM” value on human A3ARs [2] worked out at 141 ± 5%.
`Clc1ccc(Nc2nc3ccccc3c3[nH]c(C4CCCC4)nc23)cc1` [Compound 34, N-(4-Chloro-phenyl)-2-cyclopentyl-1H-imidazo[4,5-c]quinolin-4-amine] yielded a melting point of 189 to 190 °C. For the same molecule, on human A1AR, the inhibition at 10 µM was 22% and the inhibition constant Ki was more than 10 µM. On human A2A AR, the “hA2AAR % displ. at 10 μM” value is listed as “(17%)” and the inhibition constant Ki is more than 10 µM. For the same molecule, the inhibition at 10 µM at hA2BAR is -10.2%. Moreover, at human A3AR, the inhibition at 10 µM came to 82% and the Ki was 1.61 ± 0.55 µM. The activity at 10 µM on human A3ARs [1] worked out at 159 ± 5%. Also, on human A3ARs [2], the “% Increase of efficacy at hA3AR at 10 μM” value was 136 ± 3%.
`OCc1cccc(Nc2nc3ccccc3c3[nH]c(C4CCCC4)nc23)c1` [Compound 35, N-(3-Methanol-phenyl)-2-cyclopentyl-1H-imidazo[4,5-c]quinolin-4-amine] came in with a melting point of 228 to 230 °C. The inhibition at 10 µM at human A1AR came out at 51%. The “hA2AAR % displ. at 10 μM” value on human A2A AR turned out to be 49%. Moreover, at hA2BAR, the inhibition at 10 µM is -4.1%. Besides, the inhibition at 10 µM at human A3AR amounted to 56%. In addition, at human A3ARs [1], the activity at 10 µM amounted to 129 ± 15%. For the same molecule, at human A3ARs [2], the “% Increase of efficacy at hA3AR at 10 μM” value worked out at 118 ± 4%.
The molecule `c1ccc2c(c1)nc(Nc1ccc3c(c1)CCC3)c1nc(C3CCCC3)[nH]c12` [Compound 36, N-([3,4-c]Indan)-2-cyclopentyl-1H-imidazo[4,5-c]quinolin-4-amine] showed a melting point of 142 to 145 °C. Moreover, the inhibition at 10 µM at human A1AR was found to be 21%. Also, the “hA2AAR % displ. at 10 μM” value on human A2A AR was determined as 8%. Further, at hA2BAR, the inhibition at 10 µM was -10.7%. Also, the inhibition at 10 µM at human A3AR was 69%. At human A3ARs [1], the activity at 10 µM is 108 ± 4%. The “% Increase of efficacy at hA3AR at 10 μM” value at human A3ARs [2] was 111 ± 5%.
Molecule `c1ccc2c(c1)nc(Nc1ccc3cn[nH]c3c1)c1nc(C3CCCC3)[nH]c12` [Compound 37, N-(1H-indazol-6-yl)-2-cyclopentyl-1H-imidazo[4,5-c]quinolin-4-amine] returned a melting point of 235 to 236 °C. Further, the inhibition at 10 µM on human A1AR turned out to be 56%. Besides, the “hA2AAR % displ. at 10 μM” value at human A2A AR came out at 68%. Besides, the inhibition at 10 µM on hA2BAR turned out to be 5%. The inhibition at 10 µM at human A3AR is 67%. Moreover, at human A3ARs [1], the activity at 10 µM is 109 ± 3%. For the same molecule, on human A3ARs [2], the “% Increase of efficacy at hA3AR at 10 μM” value came out at 96 ± 2%.
As for `c1ccc(CNc2nc3ccccc3c3[nH]c(C4CCCC4)nc23)cc1` [Compound 40, N-(Benzyl)-2-cyclopentyl-1H-imidazo[4,5-c]quinolin-4-amine], the inhibition at 10 µM was 28% on human A1AR, -3.4% on hA2BAR and 86% on human A3AR. Moreover, the “hA2AAR % displ. at 10 μM” value on human A2A AR amounted to 77%. For the same molecule, the activity at 10 µM on human A3ARs [1] amounted to 145 ± 10%. Further, the “% Increase of efficacy at hA3AR at 10 μM” value on human A3ARs [2] amounted to 147 ± 8%.
Turning to `Clc1ccc(Nc2nc3ccccc3c3[nH]c(C4CCC4)nc23)cc1Cl` [Compound 44, N-(3,4-Dichloro-phenyl)-2-cyclobutyl-1H-imidazo[4,5-c]quinolin-4-amine], the melting point is 131 to 134 °C. In addition, at human A1AR, the inhibition at 10 µM was -5%. In addition, the “hA2AAR % displ. at 10 μM” value at human A2A AR came out at 0.4%. The inhibition at 10 µM at hA2BAR was -5.5%. The inhibition at 10 µM at human A3AR came out at 52%. Moreover, the “% Increase of efficacy at hA3AR at 10 μM” value on human A3ARs [2] is on record as 126 ± 3%.

The values above are taken from patent publication US9326978B2, “A3 adenosine receptor allosteric modulators” (The United States of America, Represented by the Secretary, …, priority 2006, dated 2016).
